Measured values reported in the supplement of paper PMC5908809.

What was measured:
SNK-6 (IL-2 2.5 ng/mL) [1] = assay: drug sensitivity score (DSS) (DSS units); higher = more sensitive; extreme values may be limits of the assay; details: 72 h
KAI3 (IL-2 2.5 ng/mL) [2] = assay: as above; details: 72 h
NK-92 (IL-2 2.5 ng/mL) [3] = assay: as above; details: 72 h
[4] = tested on: normal primary NK cells, pool 1 (3 donors), resting (IL-2 0 ng/mL); assay: as above; details: 72 h
NKL (IL-2 2.5 ng/mL) [5] = assay: as above; details: 72 h
DERL-7 (IL-2 2.5 ng/mL) [6] = assay: as above; details: 72 h
IMC-1 (IL-2 20 ng/mL) [7] = assay: as above; details: 72 h
YT (IL-2 2.5 ng/mL) [8] = assay: as above; details: 72 h
[9] = tested on: normal primary NK cells, pool 1 (3 donors) (IL-2 2.5 ng/mL); assay: as above; details: 72 h
KHYG-1 (IL-2 2.5 ng/mL) [10] = assay: as above; details: 72 h
NK-YS (IL-2 2.5 ng/mL) [11] = assay: as above; details: 72 h
[12] = tested on: normal primary NK cells, pool 2 (3 donors) (IL-2 2.5 ng/mL); assay: as above; details: 72 h
[13] = tested on: normal primary NK cells, pool 3 (3 donors) (IL-2 2.5 ng/mL); assay: as above; details: 72 h
[14] = tested on: normal NK cells expanded with K562-aAPC; assay: as above; details: 72 h; IL-2 2.5 ng/mL
Experimental: (§1)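 Drug sensitivity and resistance testing on K562-aAPC-expanded normal NK cells: 5 concentrations (10-fold steps over a 10,000-fold range), 72 h at 37 °C, viability by CellTiter-Glo normalised to DMSO and benzethonium chloride controls; DSS from the fitted curve.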

[15] = tested on: normal NK cells expanded with K562-aAPC; assay: percent inhibition of viability; higher = more inhibition; details: 72 h, IL-2 2.5 ng/mL
Experimental: as §1

SNK-6 (IL-2 2.5 ng/mL) [16] = assay: as above; details: 72 h
KAI3 (IL-2 2.5 ng/mL) [17] = assay: as above; details: 72 h
NK-92 (IL-2 2.5 ng/mL) [18] = assay: as above; details: 72 h
[19] = tested on: normal primary NK cells, pool 1 (3 donors), resting (IL-2 0 ng/mL); assay: as above; details: 72 h
NKL (IL-2 2.5 ng/mL) [20] = assay: as above; details: 72 h
DERL-7 (IL-2 2.5 ng/mL) [21] = assay: as above; details: 72 h
IMC-1 (IL-2 20 ng/mL) [22] = assay: as above; details: 72 h
YT (IL-2 2.5 ng/mL) [23] = assay: as above; details: 72 h
[24] = tested on: normal primary NK cells, pool 1 (3 donors) (IL-2 2.5 ng/mL); assay: as above; details: 72 h
KHYG-1 (IL-2 2.5 ng/mL) [25] = assay: as above; details: 72 h
NK-YS (IL-2 2.5 ng/mL) [26] = assay: as above; details: 72 h
[27] = tested on: normal primary NK cells, pool 2 (3 donors) (IL-2 2.5 ng/mL); assay: as above; details: 72 h
[28] = tested on: normal primary NK cells, pool 3 (3 donors) (IL-2 2.5 ng/mL); assay: as above; details: 72 h

CNC(=O)c1ccc(N2C(=S)N(c3cnc(C#N)c(C(F)(F)F)c3)C(=O)C23CCC3)cc1F [ARN 509] (max concentration tested 10000 nM)
Details | drug sensitivity score
DERL-7 (IL-2 2.5 ng/mL) [6] | 0
IMC-1 (IL-2 20 ng/mL) [7] | 0.78
KAI3 (IL-2 2.5 ng/mL) [2] | 1.88
KHYG-1 (IL-2 2.5 ng/mL) [10] | 0
NK-92 (IL-2 2.5 ng/mL) [3] | 0.72
NK-YS (IL-2 2.5 ng/mL) [11] | 0.46
NKL (IL-2 2.5 ng/mL) [5] | 0
SNK-6 (IL-2 2.5 ng/mL) [1] | 7.62
YT (IL-2 2.5 ng/mL) [8] | 0
[4] | 0.11
[9] | 0
[12] | 0
[13] | 0
[14] | 3.05

percent inhibition of viability [%]
Details | 1 nM | 10 nM | 100 nM | 1000 nM | 10000 nM
DERL-7 (IL-2 2.5 ng/mL) [21] | 6.41 | -1.09 | -0.93 | -13.3 | -12.6
IMC-1 (IL-2 20 ng/mL) [22] | 2.81 | -1.31 | 5.83 | 9.26 | 16.9
KAI3 (IL-2 2.5 ng/mL) [17] | -2.56 | -12.9 | 0.32 | 4.54 | 27.9
KHYG-1 (IL-2 2.5 ng/mL) [25] | -1.73 | -3.05 | 1.87 | 8.59 | 9.64
NK-92 (IL-2 2.5 ng/mL) [18] | -3.11 | -4.21 | 2.28 | -1.18 | 23
NK-YS (IL-2 2.5 ng/mL) [26] | -3.22 | -1.75 | -0.61 | 1.75 | 15.7
NKL (IL-2 2.5 ng/mL) [20] | -5.58 | -11.3 | -0.18 | -5.48 | 3.63
SNK-6 (IL-2 2.5 ng/mL) [16] | 16.7 | -1.7 | 14.6 | 33.1 | 24.3
YT (IL-2 2.5 ng/mL) [23] | 2.58 | 2.98 | 4.62 | 0.81 | 10.2
[15] | 0.72 | 1.64 | 2.47 | 20 | 14.2
[19] | -0.17 | 11.7 | -4.44 | -10.2 | 15.5
[24] | -11.3 | 4.68 | -6.94 | -10.6 | 10.8
[27] | -8.15 | -8.75 | -5.23 | -6.28 | 8.97
[28] | -7.92 | -6.67 | -6.21 | -10.2 | 3.54

Cc1ccc(-c2cc(C(F)(F)F)nn2-c2ccc(S(N)(=O)=O)cc2)cc1 [Celecoxib] (max concentration tested 10000 nM)
Details | drug sensitivity score
DERL-7 (IL-2 2.5 ng/mL) [6] | 0.68
IMC-1 (IL-2 20 ng/mL) [7] | 1.17
KAI3 (IL-2 2.5 ng/mL) [2] | 0.73
KHYG-1 (IL-2 2.5 ng/mL) [10] | 0
NK-92 (IL-2 2.5 ng/mL) [3] | 2.8
NK-YS (IL-2 2.5 ng/mL) [11] | 0.44
NKL (IL-2 2.5 ng/mL) [5] | 0
SNK-6 (IL-2 2.5 ng/mL) [1] | 7.44
YT (IL-2 2.5 ng/mL) [8] | 1.78
[4] | 1.32
[9] | 0.17
[12] | 0.61
[13] | 0.08
[14] | 0.46

percent inhibition of viability [%]
Details | 1 nM | 10 nM | 100 nM | 1000 nM | 10000 nM
DERL-7 (IL-2 2.5 ng/mL) [21] | -4.04 | -0.66 | 2.98 | 0.77 | 20.1
IMC-1 (IL-2 20 ng/mL) [22] | -1.63 | 4.12 | 3.17 | 8.92 | 21.4
KAI3 (IL-2 2.5 ng/mL) [17] | -0.1 | 5.86 | 3.78 | 10.9 | 16.6
KHYG-1 (IL-2 2.5 ng/mL) [25] | -2.14 | 0.22 | 3.78 | 5.35 | 11.5
NK-92 (IL-2 2.5 ng/mL) [18] | -11.1 | 9.29 | 13.9 | 6.91 | 36.8
NK-YS (IL-2 2.5 ng/mL) [26] | 3.79 | 1.41 | 5.74 | 5.5 | 17.7
NKL (IL-2 2.5 ng/mL) [20] | 12.9 | 8.06 | 8.99 | 8.49 | 13.6
SNK-6 (IL-2 2.5 ng/mL) [16] | 7.19 | 19.3 | 11.5 | 33.2 | 29.1
YT (IL-2 2.5 ng/mL) [23] | 6.8 | 6.48 | 10.3 | 10.8 | 21.6
[15] | 5.69 | 5.19 | 8.1 | 13.1 | 11.9
[19] | -5.64 | -19.9 | -6.8 | -14.5 | 38.8
[24] | -3.14 | -6.46 | -5.04 | -13.6 | 17.4
[27] | -5.46 | -3.07 | 8.51 | -1.27 | 21.4
[28] | -11.6 | 1.86 | 9.55 | -0.12 | 12.8
